Counter-ions that a name gives are not always drawn.
Assays:
EGFR (L858R T790M C797S) = biological target: T1, EGFR (L858R T790M C797S) (Homo sapiens, UniProt P00533, C797S/L858R/T790M); test: Biochemical EGFR inhibition assay (Caliper mobility shift), EGFR LRTMCS; conditions: LRTMCS (PH) IC50 (nM) @ 1 mM ATP (Num), EGFR LRTMCS mutant
T1 construct: purchased SignalChem E10-122VG
How it was run: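 Caliper mobility shift read-out: product and substrate peptides separated by electrophoresis and quantified. Reactions at 25° C. taken to 10–20% peptide phosphorylation, quenched with 35 mM EDTA. Apparent IC50 from percent activity vs log [compound].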

[1] = biological target: T2, intracellular phosphorylation of EGFR in NCI-H1975 cell line that harbors the EGFR L858R T790M mutations (Homo sapiens, UniProt P00533, L858R/T790M); test: NCI-H1975 pEGFR AlphaLISA assay; assay type: cell-based; conditions: NCI-H1975 cells (EGFR L858R T790M), p-EGFR (Tyr1068), 4-5 hours incubation; read-out: Ext pEGFR H1975 GMean IC50 (nM) Protocol: @Pharmaron AlphaLISA (Num)
T2 construct: NCI-H1975 cell line that harbors the EGFR L858R T790M mutations (ATCC, CRL-5908); host or cells: NCI-H1975
T2 sequence (P00533 25-1210 T790M/L858R): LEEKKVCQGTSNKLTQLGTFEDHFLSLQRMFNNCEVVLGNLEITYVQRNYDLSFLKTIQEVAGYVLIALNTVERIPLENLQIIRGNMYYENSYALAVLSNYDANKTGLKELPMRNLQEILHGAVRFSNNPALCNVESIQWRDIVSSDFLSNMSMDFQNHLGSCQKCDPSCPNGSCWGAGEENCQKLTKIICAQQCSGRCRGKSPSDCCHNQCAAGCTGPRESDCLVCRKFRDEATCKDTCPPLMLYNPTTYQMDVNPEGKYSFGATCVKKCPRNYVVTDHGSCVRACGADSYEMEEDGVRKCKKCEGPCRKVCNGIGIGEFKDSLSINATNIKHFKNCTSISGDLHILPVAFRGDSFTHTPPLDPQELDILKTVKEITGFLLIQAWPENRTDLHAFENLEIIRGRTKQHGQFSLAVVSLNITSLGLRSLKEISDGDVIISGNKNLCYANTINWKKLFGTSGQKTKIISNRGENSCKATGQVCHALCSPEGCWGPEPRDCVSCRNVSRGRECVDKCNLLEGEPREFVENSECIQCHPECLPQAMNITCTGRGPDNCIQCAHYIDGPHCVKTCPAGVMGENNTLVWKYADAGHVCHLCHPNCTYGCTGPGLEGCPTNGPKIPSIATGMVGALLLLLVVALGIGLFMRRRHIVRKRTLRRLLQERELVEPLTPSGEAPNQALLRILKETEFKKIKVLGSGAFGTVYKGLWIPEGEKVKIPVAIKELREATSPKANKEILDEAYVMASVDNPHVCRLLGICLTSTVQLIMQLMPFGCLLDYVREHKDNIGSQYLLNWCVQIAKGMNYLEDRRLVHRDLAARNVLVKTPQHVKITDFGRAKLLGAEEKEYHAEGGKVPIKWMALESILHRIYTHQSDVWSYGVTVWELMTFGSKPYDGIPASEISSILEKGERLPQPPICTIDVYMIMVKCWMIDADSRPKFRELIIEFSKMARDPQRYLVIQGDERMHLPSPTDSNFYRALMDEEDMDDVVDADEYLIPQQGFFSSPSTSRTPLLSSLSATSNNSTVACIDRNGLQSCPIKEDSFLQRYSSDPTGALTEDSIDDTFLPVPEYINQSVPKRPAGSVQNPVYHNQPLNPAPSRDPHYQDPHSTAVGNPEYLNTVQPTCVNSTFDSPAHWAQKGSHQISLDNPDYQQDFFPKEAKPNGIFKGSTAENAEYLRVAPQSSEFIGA
Experimental: On the next day, the test compounds and DMSO control were added into H1975 cell plate followed by incubation at 37C/5% CO2 for 4-5 hours. […] Then 5 μL of a donor bead mix was added to each well followed by overnight incubation at room temperature in dark. On the next day, the plate was read at a compatible plate reader to obtain pEGFR signal. Percent of pEGFR inhibition was plotted against log concentration of compounds to generate IC50 values.

T1 sequence (P00533 25-1210 T790M/C797S/L858R): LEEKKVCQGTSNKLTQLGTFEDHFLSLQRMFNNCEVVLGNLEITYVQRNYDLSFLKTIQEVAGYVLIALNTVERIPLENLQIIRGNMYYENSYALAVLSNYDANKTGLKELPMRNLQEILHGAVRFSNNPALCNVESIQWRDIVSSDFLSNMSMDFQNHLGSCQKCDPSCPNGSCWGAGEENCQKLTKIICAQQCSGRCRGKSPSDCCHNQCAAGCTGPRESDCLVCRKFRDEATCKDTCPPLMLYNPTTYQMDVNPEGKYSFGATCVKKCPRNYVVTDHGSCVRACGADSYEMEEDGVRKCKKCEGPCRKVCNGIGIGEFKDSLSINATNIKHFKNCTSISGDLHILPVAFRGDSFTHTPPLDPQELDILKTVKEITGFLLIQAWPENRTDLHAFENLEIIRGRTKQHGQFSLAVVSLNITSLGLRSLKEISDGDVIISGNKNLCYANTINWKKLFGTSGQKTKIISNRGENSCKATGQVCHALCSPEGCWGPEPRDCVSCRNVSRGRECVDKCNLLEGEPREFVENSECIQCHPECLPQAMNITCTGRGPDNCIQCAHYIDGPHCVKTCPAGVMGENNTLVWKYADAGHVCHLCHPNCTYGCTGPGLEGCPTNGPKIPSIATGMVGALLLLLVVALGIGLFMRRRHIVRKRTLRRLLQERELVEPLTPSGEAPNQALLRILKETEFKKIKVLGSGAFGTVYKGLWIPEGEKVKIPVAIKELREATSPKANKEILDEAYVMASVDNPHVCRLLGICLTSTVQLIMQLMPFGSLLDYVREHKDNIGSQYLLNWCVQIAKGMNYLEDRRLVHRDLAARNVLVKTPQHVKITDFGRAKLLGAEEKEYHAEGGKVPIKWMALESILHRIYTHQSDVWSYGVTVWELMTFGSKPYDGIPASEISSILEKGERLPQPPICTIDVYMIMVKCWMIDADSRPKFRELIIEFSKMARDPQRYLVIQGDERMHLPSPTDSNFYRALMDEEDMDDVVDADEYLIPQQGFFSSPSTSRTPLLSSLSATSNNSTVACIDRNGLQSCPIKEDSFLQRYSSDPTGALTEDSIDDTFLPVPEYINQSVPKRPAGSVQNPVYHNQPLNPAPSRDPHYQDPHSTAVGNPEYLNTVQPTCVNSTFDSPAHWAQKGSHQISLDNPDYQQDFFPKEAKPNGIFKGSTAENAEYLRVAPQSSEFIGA

SMILES | IC50 (EGFR (L858R T790M C797S)) | IC50 [1]
CC(C)c1nnc(N2CC[C@H]2C(F)F)c2cnc(Nc3ccnc(N4CC[C@@H](O)[C@@](C)(F)C4)n3)cc12 (single isomer, unassigned) [Example 205, (3S,4R)-1-(4-((4-((S)-2-(difluoromethyl)azetidin-1-yl)-1-isopropylpyrido[3,4-d]pyridazin-7-yl)amino)pyrimidin-2-yl)-3-fluoro-3-methylpiperidin-4-ol or (3S,4R)-1-(4-((4-((R)-2-(difluoromethyl)azetidin-1-yl)-1-isopropylpyrido[3,4-d]pyridazin-7-yl)amino)pyrimidin-2-yl)-3-fluoro-3-methylpiperidin-4-ol] | 30 to 100 nM | > 50 nM
CC(C)c1cnc(N2CCC23CN(C)C3)c2cnc(Nc3ccnc(N4CCC5(CCO5)CC4)n3)cc12 [Example 116, N-(2-(1-oxa-7-azaspiro[3.5]nonan-7-yl)pyrimidin-4-yl)-5-isopropyl-8-(6-methyl-1,6-diazaspiro[3.3]heptan-1-yl)-2,7-naphthyridin-3-amine] | 20 to 30 nM | > 50 nM
CC(C)c1cnc(N2CCCC2)c2cnc(Nc3ccnc(N4CC[C@@H](O)[C@@H](F)C4)n3)cc12 [Example 151, (3S,4R)-3-fluoro-1-(4-((5-isopropyl-8-(pyrrolidin-1-yl)-2,7-naphthyridin-3-yl)amino)pyrimidin-2-yl)piperidin-4-ol] | 20 to 30 nM | 30 to 50 nM
CC(C)c1cnc(N2C[C@H](O)[C@H]2C)c2cnc(Nc3ccnc(N4C[C@H](F)[C@H](O)[C@@](C)(F)C4)n3)cc12 (single isomer, unassigned) [Example 135, (3S,4S,5S)-3,5-difluoro-1-(4-((8-((2R,3S)-3-hydroxy-2-methylazetidin-1-yl)-5-isopropyl-2,7-naphthyridin-3-yl)amino)pyrimidin-2-yl)-3-methylpiperidin-4-ol or (3R,4R,5R)-3,5-difluoro-1-(4-((8-((2R,3S)-3-hydroxy-2-methylazetidin-1-yl)-5-isopropyl-2,7-naphthyridin-3-yl)amino)pyrimidin-2-yl)-3-methylpiperidin-4-ol] | 20 to 30 nM | > 50 nM
CC(C)c1cnc(-c2cnn(C)c2CN(C)C)c2cnc(Nc3ccnc(N4CC[C@@H](O)[C@@](C)(F)C4)n3)cc12 [Example 13, (3S,4R)-1-(4-((8-(5-((dimethylamino)methyl)-1-methyl-1H-pyrazol-4-yl)-5-isopropyl-2,7-naphthyridin-3-yl)amino)pyrimidin-2-yl)-3-fluoro-3-methylpiperidin-4-ol trifluoroacetate] | 30 to 100 nM | > 50 nM
CC(C)c1cnc(-c2cnn(C(F)F)c2)c2cnc(Nc3ccnc(N4CC[C@@H](O)[C@@](C)(F)C4)n3)cc12 [Example 16, (3S,4R)-1-(4-((8-(1-(difluoromethyl)-1H-pyrazol-4-yl)-5-isopropyl-2,7-naphthyridin-3-yl)amino)pyrimidin-2-yl)-3-fluoro-3-methylpiperidin-4-ol] | 15 to 20 nM | > 50 nM
CC(C)Oc1cnc(N2CC[C@H]2C)c2cnc(Nc3ccnc(N4CC[C@@H](O)[C@@H](F)C4)n3)cc12 [Example 153, (3S,4R)-3-fluoro-1-(4-((5-isopropoxy-8-((R)-2-methylazetidin-1-yl)-2,7-naphthyridin-3-yl)amino)pyrimidin-2-yl)piperidin-4-ol] | 30 to 100 nM | > 50 nM
CC(C)c1cnc(N2CC[C@]3(C2)CC3(F)F)c2cnc(Nc3ccnc(N4CC[C@@H](O)[C@@](C)(F)C4)n3)cc12 (single isomer, unassigned) [Example 213, (3S,4R)-1-(4-((8-((R)-1,1-difluoro-5-azaspiro[2.4]heptan-5-yl)-5-isopropyl-2,7-naphthyridin-3-yl)amino)pyrimidin-2-yl)-3-fluoro-3-methylpiperidin-4-ol or (3S,4R)-1-(4-((8-((S)-1,1-difluoro-5-azaspiro[2.4]heptan-5-yl)-5-isopropyl-2,7-naphthyridin-3-yl)amino)pyrimidin-2-yl)-3-fluoro-3-methylpiperidin-4-ol] | < 15 nM | 10 to 20 nM
CC(C)c1cnc(N2CC3(CCS3(=O)=O)C2)c2cnc(Nc3ccnc(N4CC[C@@H](O)[C@@](C)(F)C4)n3)cc12 [Example 98, 6-(6-((2-((3S,4R)-3-fluoro-4-hydroxy-3-methylpiperidin-1-yl)pyrimidin-4-yl)amino)-4-isopropyl-2,7-naphthyridin-1-yl)-1-thia-6-azaspiro[3.3]heptane 1,1-dioxide] | < 15 nM | 10 to 20 nM

Results, then the compound that gave them:

IC50 (EGFR (L858R T790M C797S)) | IC50 [1] | SMILES
< 15 nM | 10 to 20 nM | CC(C)c1cnc(N2CCC23CCN(C)CC3)c2cnc(Nc3ccnc(N4CC[C@@H](O)[C@@](C)(F)C4)n3)cc12 [Example 196, (3S,4R)-3-fluoro-1-(4-((5-isopropyl-8-(7-methyl-1,7-diazaspiro[3.5]nonan-1-yl)-2,7-naphthyridin-3-yl)amino)pyrimidin-2-yl)-3-methylpiperidin-4-ol]
< 15 nM | 10 to 20 nM | [2H]C([2H])([2H])O[C@H]1CN(c2ncc(C(C)C)c3cc(Nc4ccnc(N5CC[C@@H](O)[C@@](C)(F)C5)n4)ncc23)[C@@H]1C [Example 108, (3S,4R)-3-fluoro-1-(4-((5-isopropyl-8-((2R,3S)-3-(methoxy-d3)-2-methylazetidin-1-yl)-2,7-naphthyridin-3-yl)amino)pyrimidin-2-yl)-3-methylpiperidin-4-ol]
< 15 nM | 20 to 30 nM | CC(C)c1cnc(N2CCC2)c2cnc(Nc3ccnc(N4CC[C@@H](O)[C@@](C)(F)C4)n3)cc12 [Example 46, (3S,4R)-1-(4-((8-(azetidin-1-yl)-5-isopropyl-2,7-naphthyridin-3-yl)amino)pyrimidin-2-yl)-3-fluoro-3-methylpiperidin-4-ol]
< 15 nM | 30 to 50 nM | Cc1nc(-c2ccc(C(C)C)c3cc(Nc4ccnc(N5CC[C@@H](O)[C@@](C)(F)C5)n4)ncc23)n[nH]1 [Example 26, (3S,4R)-3-fluoro-1-(4-((5-isopropyl-8-(5-methyl-1H-1,2,4-triazol-3-yl)isoquinolin-3-yl)amino)pyrimidin-2-yl)-3-methylpiperidin-4-ol]
< 15 nM | 10 to 20 nM | CC(C)c1ccc(N2CC(c3nncn3C)C2)c2cnc(Nc3ccnc(N4CC[C@@H](O)[C@@](C)(F)C4)n3)cc12 [Example 112, (3S,4R)-3-fluoro-1-(4-((5-isopropyl-8-(3-(4-methyl-4H-1,2,4-triazol-3-yl)azetidin-1-yl)isoquinolin-3-yl)amino)pyrimidin-2-yl)-3-methylpiperidin-4-ol]
< 15 nM | > 50 nM | CC(C)c1cnc(-c2cn(C)nn2)c2cnc(Nc3ccnc(N4CCC5(CCO5)CC4)n3)cc12 [Example 23, N-(2-(1-oxa-7-azaspiro[3.5]nonan-7-yl)pyrimidin-4-yl)-5-isopropyl-8-(1-methyl-1H-1,2,3-triazol-4-yl)-2,7-naphthyridin-3-amine]
< 15 nM | 10 to 20 nM | CNCCO[C@@H]1CCN(c2nccc(Nc3cc4c(C(C)C)cnc(N5CC[C@H]5C)c4cn3)n2)C[C@@H]1F [Example 201, N-(2-((3S,4R)-3-fluoro-4-(2-(methylamino)ethoxy)piperidin-1-yl)pyrimidin-4-yl)-5-isopropyl-8-((R)-2-methylazetidin-1-yl)-2,7-naphthyridin-3-amine]
< 15 nM | > 50 nM | CC(C)c1cnc(N2C[C@@H](F)[C@@H]2C)c2cnc(Nc3ccnc(N4CC[C@@H](O)[C@@](C)(F)C4)n3)cc12 (single isomer, unassigned) [Example 34, (3S,4R)-3-fluoro-1-(4-((8-((2S,3R)-3-fluoro-2-methylazetidin-1-yl)-5-isopropyl-2,7-naphthyridin-3-yl)amino)pyrimidin-2-yl)-3-methylpiperidin-4-ol or (3S,4R)-3-fluoro-1-(4-((8-((2R,3S)-3-fluoro-2-methylazetidin-1-yl)-5-isopropyl-2,7-naphthyridin-3-yl)amino)pyrimidin-2-yl)-3-methylpiperidin-4-ol]
< 15 nM | 20 to 30 nM | C[C@H](c1cnc(N2CC[C@H]2C)c2cnc(Nc3ccnc(N4CC[C@@H](O)[C@@](C)(F)C4)n3)cc12)C1COC1 (single isomer, unassigned) [Example 176, (3S,4R)-3-fluoro-3-methyl-1-(4-((8-((R)-2-methylazetidin-1-yl)-5-((S)-1-(oxetan-3-yl)ethyl)-2,7-naphthyridin-3-yl)amino)pyrimidin-2-yl)piperidin-4-ol or (3S,4R)-3-fluoro-3-methyl-1-(4-((8-((R)-2-methylazetidin-1-yl)-5-((R)-1-(oxetan-3-yl)ethyl)-2,7-naphthyridin-3-yl)amino)pyrimidin-2-yl)piperidin-4-ol]
< 15 nM | 30 to 50 nM | COCCN1CC2(CCN2c2ncc(C(C)C)c3cc(Nc4ccnc(N5CC[C@@H](O)[C@@](C)(F)C5)n4)ncc23)C1 [Example 64, (3S,4R)-3-fluoro-1-(4-((5-isopropyl-8-(6-(2-methoxyethyl)-1,6-diazaspiro[3.3]heptan-1-yl)-2,7-naphthyridin-3-yl)amino)pyrimidin-2-yl)-3-methylpiperidin-4-ol]
